From patent publication US10435400B2, “2,4-disubstituted phenylene-1,5-diamine derivatives and applications thereof, and pharmaceutical compositions and pharmaceutically acceptable compositions prepared therefrom” (SHANGHAI HAIYAN PHARMACEUTICAL TECHNOLOGY CO., LTD., priority 2014, dated 2019)
Read-outs that look alike come from different tables or passages of the source.

What was measured:
A431 cells [1] = assay: Cytostatic activity by MTT method, A431 cells; settings: read-out: A431 cells (IC50/nM);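 further: viability read by MTT reduction after compound exposure, with MTT incubated for a further 4 h at 37 °C under 5% CO2 in 96-well plates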
Procedure: (§1) After rinsed for one time, 1.5 ml trypsin/EDTA was added to digest the adherent cells until the cells detached, and then 3.5 ml of medium was added to terminate the trypsinization. The digested cell suspension was transferred to a 15 ml falcon tube, and spun at 1300 rpm for 3 min, the supernatant was discarded, and cells were suspended in fresh medium.
(§2) The cells were added into the incubator after addition of the test compound, and incubated for 72 h, 10 μl of 5 mg/ml MTT (Sigma, M5655) solution was added to each well of the plate, and incubated the 96-well plates at 37° C. 5% CO2 for 4 h in a incubator.
(§3) The plates were spun at 2000 rpm for 5 min.

H1975 cells [2] = assay: Cytostatic activity by MTT method, H1975 cells; assay type: cell-based; settings: MTT; for IC50: 72 h, read-out: H1975 cells (IC50/nM); for selective inhibitory activity against the cell growth [IC50 (A431 cells)/IC50 (H1975 cells)]: ratio of IC50 values
Procedure: MTT assay used the method well known to those skilled in the art, and the reagents used in the method can be commercially obtained. […] After rinsed for one time, 1.5 ml trypsin/EDTA was added to digest the adherent cells until the cells detached, and then 3.5 ml of medium was added to terminate the trypsinization. The digested cell suspension was transferred to a 15 ml falcon tube, and spun at 1300 rpm for 3 min, the supernatant was discarded, and cells were suspended in fresh medium. […] The plates were spun at 2000 rpm for 5 min.

H1975 cells [3] = assay: ELISA screening EGFR T790M inhibitor for cell activity, H1975 cells; assay type: cell-based; settings: ELISA; for Selective inhibitory activities of target on cellular level [IC50 (A431 cells)/IC50 (H1975 cells)]: ratio of IC50 values; for IC50: compound 1 h, read-out: H1975 cells (IC50/nM)
Procedure: (§4) The reagents, preparation methods of the solution, as well as the procedures of cell treatments and preparation of lysate, and the test steps of ELISA in the following method were conducted according to the instructions of R&D DYC3570, R&D DYC1095E and R&D DYC1095BE.
(§5) Cell lysates: cell lysis buffer+10 μg/ml Aprotinin (Sigma), 10 μg/ml Leupeptin (Sigma). All reagents were prepared when using.
(2) The test compounds were diluted according to the method in MTT assay, and 10 μl of diluted compound or DMSO was added to the corresponding plate well, and incubated at 37° C. with 5% CO2 for 1 h. The final concentration of DMSO was 0.5%. Cell culture system merely treated with DMSO was used as cell control.
(3) 100 μl cell lysate was added after aspirating the medium, sealed and placed in a refrigerator at −80° C. overnight. Cell lysis buffer used as blank control.
The assay was operated according to the instructions of R&D DYC1095E or R&D DYC1095BE.
(§6) (5) 40 μl of cell lysis buffer and 60 μl of cell lysates were added, and incubated at 25° C. for 2 h under shaking;
(7) Detection antibody was diluted according to a predetermined ratio as stipulated in kit instructions by using IC diluent, and 100 μl of the diluted Detection Antibody was added to each well, and incubated at 25° C. for 1 h under shaking in darkness;
(9) reagent A and reagent B of TMB substrate (R & D DY999) were mixed with 1:1, and 100 μl of substrate was added to each well, and incubated at 25° C. for 20 minutes under shaking in darkness;
(11) The OD450 values and OD570 values of the cell control, blank control and compound treatment were measured respectively by using microplate reader (Thermo Multiskan K3), and the corresponding OD570 values were subtracted from OD450 values of the same wells to get the ODcell, ODblank and ODcompound treatment respectively.
2.3 Data Analysis Inhibition ratio (%)=100%×(ODcell−ODcompound treatment)(ODcell−ODblank)

EGFR WT kinase = EGFR WT kinase (Homo sapiens (Human), UniProt P00533); assay: Wild type EGFR kinase inhibition test (z-lyte); assay type: biochemical; settings: 10 μM ATP
NIH3T3 cells = assay: Cytotoxicity by MTT method, NIH3T3 cells; assay type: cell-based; settings: cytotoxicity, MTT, 72 h, read-out: NIH3T3 cells MTT assay (IC50/nM);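 further: cells grown in 96-well plates with compound for 72 h, then given MTT for a further 4 h at 37 °C under 5% CO2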
Procedure: as §1, §2, §3

A431 cells [4] = assay: ELISA cell activity, EGF-stimulated A431 cells; assay type: cell-based; settings: ELISA, compound 1 h then EGF 45 minutes, read-out: A431 cells (IC50/nM);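 further: Serum-starved A431 cells pretreated with compound for 1 h, then stimulated with EGF for 45 min, lysates read by ELISA (OD450 minus OD570), EGF-only wells as control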
Procedure: as §4, §5
(2) The medium of A431 cells was changed to 90 ul of DMEM FBS free medium, and incubated overnight.
(3) The test compounds were diluted according to the method in MTT assay, 10 μl of diluted compound or DMSO was added to the corresponding plate well, and incubated at 37° C. with 5% CO2 for 1 h. The final concentration of DMSO was 0.5%. 10 μl of 2 μg/L EGF was then added to each well except the cell control well, 10 μl of FBS free DMEM was added to the well, and incubated for 45 minutes; the EGF-free and compound treatment-free cells were used as cell control, and the compound treatment-free but only EGF-treated cells were used as EGF control.
(4) 100 μl cell lysate was added after aspirating the medium, sealed and placed in refrigerator at −80° C. overnight.
The assay was operated according to the instructions of R&D DYC3570E.
as §6
(7) Detection antibody was diluted according to a predetermined ratio of kit instruction by using IC dilution, and 100 μl of the diluted Detection Antibody was added to each well, and incubated at 25° C. for 1 h under shaking in darkness;
(9) reagent A and reagent B of TMB substrate (R & D DY999) were mixed at 1:1, 100 μl of substrate was added to each well, and incubated at 25° C. for 20 minutes under shaking in darkness;
(11) The OD450 values and OD570 values of the cell control, blank control and compound treatment were measured respectively by using microplate reader (Thermo Multiskan K3), and the corresponding OD570 values were subtracted from OD450 values of the same wells to get the ODEGF, ODcompound and ODcell respectively.

EGFR WT kinase, sequence (P00533 25-1210): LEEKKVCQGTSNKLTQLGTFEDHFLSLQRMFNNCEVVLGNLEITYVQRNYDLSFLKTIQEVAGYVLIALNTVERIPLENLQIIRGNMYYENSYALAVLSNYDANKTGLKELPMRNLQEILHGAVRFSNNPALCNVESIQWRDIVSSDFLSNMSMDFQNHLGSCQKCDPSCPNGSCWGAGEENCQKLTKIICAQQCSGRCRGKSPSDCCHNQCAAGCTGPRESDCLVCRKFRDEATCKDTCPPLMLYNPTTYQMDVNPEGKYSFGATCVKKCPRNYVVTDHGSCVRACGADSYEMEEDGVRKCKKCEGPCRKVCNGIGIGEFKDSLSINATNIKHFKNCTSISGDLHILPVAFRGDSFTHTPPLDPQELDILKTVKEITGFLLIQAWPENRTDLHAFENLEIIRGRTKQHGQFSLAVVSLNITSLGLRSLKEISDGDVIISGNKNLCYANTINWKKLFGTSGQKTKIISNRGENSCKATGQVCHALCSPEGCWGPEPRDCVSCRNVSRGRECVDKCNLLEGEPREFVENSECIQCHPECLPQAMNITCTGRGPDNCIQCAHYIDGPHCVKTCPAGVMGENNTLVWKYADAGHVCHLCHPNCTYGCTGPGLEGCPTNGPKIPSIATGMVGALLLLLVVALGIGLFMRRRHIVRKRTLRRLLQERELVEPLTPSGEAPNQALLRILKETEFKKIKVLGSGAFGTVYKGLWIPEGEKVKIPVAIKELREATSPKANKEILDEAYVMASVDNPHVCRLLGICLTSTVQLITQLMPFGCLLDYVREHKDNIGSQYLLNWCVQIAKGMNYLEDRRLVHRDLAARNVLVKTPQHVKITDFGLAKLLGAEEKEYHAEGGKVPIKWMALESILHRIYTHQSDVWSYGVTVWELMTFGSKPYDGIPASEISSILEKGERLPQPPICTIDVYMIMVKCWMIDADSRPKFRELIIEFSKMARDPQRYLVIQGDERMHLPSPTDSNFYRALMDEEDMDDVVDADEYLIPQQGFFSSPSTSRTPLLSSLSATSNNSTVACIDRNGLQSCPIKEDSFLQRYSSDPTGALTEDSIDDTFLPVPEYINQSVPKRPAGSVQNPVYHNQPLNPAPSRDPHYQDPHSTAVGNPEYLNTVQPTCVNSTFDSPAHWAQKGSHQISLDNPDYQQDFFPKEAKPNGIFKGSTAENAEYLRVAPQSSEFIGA

| Compound | IC50 (A431 cells [1]; Homo sapiens, A-431, 72 h) | IC50 (H1975 cells [2]; Homo sapiens, NCI-H1975) | selective inhibitory activity against the cell growth [IC50 (A431 cells)/IC50 (H1975 cells)] (H1975 cells [2]) | Selective inhibitory activities of target on cellular level [IC50 (A431 cells)/IC50 (H1975 cells)] (H1975 cells [3]) | IC50 (H1975 cells [3]; Homo sapiens, NCI-H1975) | IC50 (EGFR WT kinase) | IC50 (NIH3T3 cells; Mus musculus, NIH3T3) | IC50 (A431 cells [4]; Homo sapiens, A-431) | IC50 (A431 cells [1]; MTT, 72 h) | IC50 (H1975 cells [2]) | IC50 (H1975 cells [3]) | IC50 (NIH3T3 cells) | IC50 (A431 cells [4]) |
| --- | --- | --- | --- | --- | --- | --- | --- | --- | --- | --- | --- | --- | --- |
| C=CC(=O)Nc1cc(Nc2ncc(Cl)c(-c3cn(C)nc3C)n2)c(OC)cc1N1CCC(N(C)C)CC1 [Compound Z-95, N-(5-(5-chloro-4-(1,3-dimethyl-1H-pyrazol-4-yl)pyrimidin-2-ylamino)-2-(4-(dimethylamino)piperidin-1-yl)-4-methoxyphenyl)acrylamide] | 5450 nM | 45 nM | 121.1 | 121 | 41 nM | 328 nM | > 10000 nM | 4960 nM | – | – | – | – | – |
| C=CC(=O)Nc1cc(Nc2ncc(Cl)c(-c3ccn(C)c3)n2)c(OC)cc1N(C)CCN(C)C [Compound Z-99, N-(5-(5-chloro-4-(1-methyl-1H-pyrrol-3-yl)pyrimidin-2-ylamino)-2-((2-(dimethylamino)ethyl)(methyl)amino)-4-methoxyphenyl)acrylamide] | 1040 nM | 40 nM | 26 | 11.6 | 57 nM | 38 nM | 5990 nM | 663 nM | – | – | – | – | – |
| C=CC(=O)Nc1cc(Nc2ncc(Cl)c(-c3cnn(C)c3)n2)c(OC)cc1N1CCN(C)CC1 [Compound Z-100, N-(5-(5-chloro-4-(1-methyl-1H-pyrazol-4-yl)pyrimidin-2-ylamino)-4-methoxy-2-(4-methylpiperazin-1-yl)phenyl)acrylamide] | 1230 nM | 24 nM | 51.1 | 351.2 | 24 nM | 297 nM | 3880 nM | 8430 nM | – | – | – | – | – |
| C=CC(=O)Nc1cc(Nc2nccc(-c3cnc4c(ccn4C)c3)n2)c(OC)cc1N(C)CCN(C)C(C)C [Compound Z-115] | – | – | 66 | 5.2 | – | 22 nM | – | – | 2500 nM | 38 nM | 90 nM | > 10000 nM | 469 nM |
| C=CC(=O)Nc1cc(Nc2nccc(-c3cnc4c(ccn4C)c3)n2)c(OC)cc1OCCN(C)C [Compound Z-117] | – | – | 68.5 | 9.1 | – | 8 nM | – | – | 1300 nM | 19 nM | 18 nM | > 10000 nM | 164 nM |
| C=CC(=O)Nc1cc(Nc2ncc(Cl)c(-c3cnc4c(ccn4C(C)C)c3)n2)c(OC)cc1N(C)CCN(C)C [Compound Z-125] | – | – | 101.2 | 6.2 | – | 14 nM | – | – | 1320 nM | 13 nM | 47 nM | 4660 nM | 291 nM |
| C=CC(=O)Nc1cc(Nc2ncc(Cl)c(-c3cnc4c(ccn4C4CC4)c3)n2)c(OC)cc1N(C)CCN(C)C [Compound Z-126] | – | – | 49.5 | 11.5 | – | 7 nM | – | – | 495 nM | 10 nM | 20 nM | 4910 nM | 229 nM |
